The values below come from publication PMC6172212, “Structural Analysis of Inhibitor Binding to CAMKK1 Identifies Features Necessary for Design of Specific Inhibitors” (Scientific Reports, 2018).

Where two headings read alike, the source gives them in different places.

For experiment [1], the target named is T1, CAMKK1 kinase domain (CAMKK1-KD, Gln124-Lys411) (Homo sapiens, UniProt Q8N5S9).
T1 construct: The kinase domain (Gln124 to Lys411) was amplified using the primers; 6xHis (TEV-cleavable) (N, cleaved yes); made in house; host or cells: Escherichia coli BL21(DE3)-R3 co-expressing λ-phosphatase
T1 sequence (Q8N5S9 124-411): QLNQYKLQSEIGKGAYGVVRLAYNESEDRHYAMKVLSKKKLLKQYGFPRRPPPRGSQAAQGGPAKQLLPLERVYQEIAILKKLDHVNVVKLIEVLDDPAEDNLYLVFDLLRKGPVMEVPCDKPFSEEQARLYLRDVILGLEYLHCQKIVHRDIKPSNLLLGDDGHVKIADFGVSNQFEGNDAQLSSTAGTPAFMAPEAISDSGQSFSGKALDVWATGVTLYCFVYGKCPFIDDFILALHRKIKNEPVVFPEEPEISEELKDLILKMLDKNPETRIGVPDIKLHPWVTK
Put plainly: Differential scanning fluorimetry (DSF) screen of a kinase inhibitor library against CAMKK1-KD. It is filed as binding. On the procedure: DSF measurements were made in a 384-well plate.
The compounds, previously solubilized in DMSO, were used at 10 µM final concentration and 0.1% DMSO. Plates were sealed using optically clear films and transferred to a QuantStudio 6 qPCR instrument (Applied Biosystems). […] Protein in 0.1% DMSO was used as a reference.

The target in experiment [2] is T2, CAMKK1 kinase domain (CAMKK1-KD) (Homo sapiens, UniProt Q8N5S9).
T2 construct: The kinase domain (Gln124 to Lys411) was amplified using the primers; 6xHis (TEV-cleavable) (N, cleaved yes); made in house; host or cells: Escherichia coli BL21(DE3)-R3 co-expressing λ-phosphatase
T2 sequence (Q8N5S9 124-411): as above
Put plainly: Isothermal titration calorimetry (ITC) with CAMKK1-KD. The conditions noted are these: for ΔH: ITC at 20 °C, binding enthalpy. In kind it is binding. Here is the method:
Measurements were made using a MicroCal AutoiITC200 (Malvern, United Kingdom), at 20 °C with 1000 rpm stirring. For all measurements CAMKK1-KD protein was dialysed overnight against gel filtration buffer, and the dialysis buffer was used to dilute the inhibitors. CAMKK1-KD protein was titrated into a solution containing the inhibitor. […] ITC data was analysed with NITPIC, and SEDPHAT; figures were made using GUSSI[30].
(In general: In ITC the heat of successive injections is recorded.)

Experiment [3] addresses T3, full length CAMKK1 (CAMKK1-FL) (Homo sapiens, UniProt Q8N5S9).
T3 construct: made in house; host or cells: Spodoptera frugiperda Sf9 insect cells (baculovirus)
The experiment is described as follows: IC50 determination by TR-FRET enzymatic assay with CAMKK1-FL in the presence of Ca2+/calmodulin. It is filed as biochemical. On the procedure: Final assay concentrations of the components of the enzyme mix were 5 nM CAMKK1-FL, 1 µM calmodulin, 1 mM CaCl2, 5 mM MgCl2, 1 mM DTT. Final concentrations of ATP and peptide were 100 µM ATP, 1 µM peptide (STK substrate S1). The inhibitor solutions were prepared starting from 10 mM solutions in DMSO, diluted in enzymatic assay buffer to 200 or 100 µM, and then a 2x serial dilution in enzymatic assay buffer was performed, yielding the serially diluted inhibitors at 2.5x final concentration. […] For detection, 5 µL of streptavidin-XL665, and 5 µL of antibody-Eu-cryptate were added. […] Data was analysed in GraphPad PRISM version 7.
(In general: In TR-FRET formats the signal depends on donor and acceptor labels being close together.)

In the next experiment the test system is CAMKK1. Details: concentration or dose not given beside the values. The conditions noted are these: supplement; ref Anastassiadis et al. (2011); cited from earlier work.
Another experiment concerns CAMKK2. Also on record: concentration or dose not given beside the values. The conditions noted are these: supplement; ref Anastassiadis et al. (2011); cited from earlier work.
The mark [4] stands for this setting: DSF, 1 μM CAMKK1-KD, compound 10 µM, mean and standard error from triplicate measurements, read-out: ΔTm (°C) CAMKK1.
Where [5] appears, read: DSF, CAMKK1-KD, compound 10 µM, repeated in Table 3, read-out: ΔTm (°C).
Where [6] appears, read: DSF, 1 μM CAMKK1-KD, compound 10 µM, supplement, read-out: Mean ΔTm (°C).
[7] abbreviates: DSF, 1 μM CAMKK1-KD, compound 10 µM, supplement.

For the compound `COCCOc1ccc2c(c1)ncn2-c1ccc2cccc(N3CCC(N)CC3)c2n1` [CP-673451], the ΔTm at 10 µM in experiment [1] (setting [4]) and in experiment [1] (setting [5]) was 14.4 ± 0.9 °C throughout. In addition, the affinity in experiment [2], expressed as Kd, was 7 nM. Moreover, the IC50 (commonly the concentration at which inhibition is half-maximal) in experiment [3] worked out at 101 nM. As to `CC1(COc2ccc3c(c2)ncn3-c2ccc3cccc(N4CCC(N)CC4)c3n2)COC1` [Crenolanib (CP-868596), Crenolanib], the ΔTm at 10 µM in experiment [1] (setting [4]) and in experiment [1] (setting [5]) was 13.6 ± 0.6 °C throughout. The affinity in experiment [2], expressed as Kd, was 4 nM. In addition, the “ΔH” value in experiment [2] was -10.9 kcal/mol. Also, the IC50 in experiment [3] was determined as 153 nM. Take `CCS(=O)(=O)Nc1ccc2c(c1)/C(=C(/Nc1ccc(CN3CCCCC3)cc1)c1ccccc1)C(=O)N2` [Hesperadin]: the ΔTm at 10 µM in experiment [1] (setting [4]) and in experiment [1] (setting [5]) was 7 ± 0.8 °C each time. Further, the Kd (as a rule, the concentration at which binding is half-saturated) in experiment [2] turned out to be 26 nM. For the same compound, in experiment [2], the “ΔH” value is -14.1 kcal/mol. The half-maximal inhibitory concentration (IC50) in experiment [3] is 107 nM. Turning to `Cc1ccc(Nc2nccc(N(C)c3ccc4c(C)n(C)nc4c3)n2)cc1S(N)(=O)=O` [Pazopanib], the “Remaining activity (%) from Anastassiadis et al. (2011) CAMKK1” value (“Remaining activity (%) … (2011) CAMKK1” below) with CAMKK1 is 72%. For the same compound, the “Remaining activity (%) from Anastassiadis et al. (2011) CAMKK2” value (shortened to “Remaining activity (%) … (2011) CAMKK2”) with CAMKK2 is recorded as 98%.

Take `Cc1cc(Nc2cc(N3CCN(C)CC3)nc(Sc3ccc(NC(=O)C4CC4)cc3)n2)[nH]n1` [VX-680 (Tozasertib), Tozasertib]: the ΔTm (usually the shift of the melting midpoint relative to a reference) at 10 µM in experiment [1] (setting [6]) came out at 3.4 °C. For the same compound, the “Remaining activity (%) … (2011) CAMKK1” value in the experiment with CAMKK1 was 86%. Take `O=C(O)c1ccc(-c2c[nH]c3ncc(-c4ccccc4)cc23)cc1C1CCCC1` [GSK650394]: the ΔTm at 10 µM in experiment [1] (setting [4]) and in experiment [1] (setting [5]) was 16.1 ± 0.8 °C in each case. The “ΔH” value in experiment [2] is -20.5 kcal/mol. As to `COc1cc(N2CCC(N3CCN(C)CC3)CC2)ccc1Nc1ncc(Cl)c(Nc2ccccc2P(C)(C)=O)n1` [AP26113], the shift in melting temperature (ΔTm) at 10 µM in experiment [1] (setting [4]) and in experiment [1] (setting [5]) was 8.2 ± 0.6 °C throughout. Besides, the Kd in experiment [2] was determined as 45 nM. Moreover, the “ΔH” value in experiment [2] is -9.11 kcal/mol. The IC50 in experiment [3] came out at 89 nM. Consider `COc1cc2c(N3CCN(C(=O)Nc4ccc(OC(C)C)cc4)CC3)ncnc2cc1OCCCN1CCCCC1` [Tandutinib (MLN518), Tandutinib], for which the ΔTm at 10 µM in experiment [1] (setting [6]) is 2.3 °C. Same read-out and setting: for `Cc1cc(Nc2cc(CN3CCOCC3)c3nc(C)c(Cc4ccc(Cl)cc4F)n3n2)n[nH]1` [LY2784544] the value was 4.6 °C; for `CN(C)C/C=C/C(=O)Nc1cc2c(Nc3ccc(F)c(Cl)c3)ncnc2cc1O[C@H]1CCOC1` [Afatinib (BIBW2992), Afatinib], 3.4 °C.

For the compound `COc1cc2nccc(Oc3ccc(NC(=O)C4(C(=O)Nc5ccc(F)cc5)CC4)cc3)c2cc1OC` [Cabozantinib (XL184), Cabozantinib], the “Mean ΔTm (°C)” value in experiment [1] (setting [7]) turned out to be 5.0 °C. In the case of `Cc1cnc(Nc2ccc(OCCN3CCCC3)cc2)nc1Nc1cccc(S(=O)(=O)NC(C)(C)C)c1` [TG101348 (SAR302503)], the ΔTm at 10 µM in experiment [1] (setting [6]) came out at 3.4 °C.

On to `COc1cc2nccc(Oc3ccc(NC(=O)Nc4ccc(F)cc4F)c(F)c3)c2cc1OC` [Ki8751], for which the “Mean ΔTm (°C)” value in experiment [1] (setting [7]) was determined as 2.1 °C. Take `CNC(=O)c1nn(C)c2c1C(C)(C)Cc1cnc(Nc3ccc(N4CCN(C)CC4)cc3)nc1-2` [Milciclib (PHA-848125), Milciclib]: the ΔTm at 10 µM in experiment [1] (setting [6]) turned out to be 4.1 °C.

`C1=C/COCc2cc(ccc2OCCN2CCCC2)Nc2nccc(n2)-c2cccc(c2)COC/1` [Pacritinib (SB1518), Pacritinib]: in experiment [1] (setting [4]), the ΔTm at 10 µM worked out at 5.7 ± 1.2 °C. Consider `O=c1[nH]c2ccc(Cl)cc2c(N[C@@H]2CN3CCC2CC3)c1-c1nc2ccccc2[nH]1` [CHIR-124], for which the “Mean ΔTm (°C)” value in experiment [1] (setting [7]) is 5.5 °C.

Turning to `COc1cc2c(Nc3ccc(Br)cc3F)ncnc2cc1OCC1CCN(C)CC1` [Vandetanib (ZD6474), Vandetanib], the “Remaining activity (%) … (2011) CAMKK1” value in the experiment on CAMKK1 is given as 90%. Also, in the experiment with CAMKK2, the “Remaining activity (%) … (2011) CAMKK2” value is on record as 102%. In the case of `CN1CCN(c2ccc3nc(-c4c(N)c5c(F)cccc5[nH]c4=O)[nH]c3c2)CC1` [Dovitinib (TKI-258), Dovitinib], the “Mean ΔTm (°C)” value in experiment [1] (setting [7]) was 3.1 °C. Take `CCOc1cc2ncc(C#N)c(Nc3ccc(F)c(Cl)c3)c2cc1NC(=O)/C=C/CN(C)C` [Pelitinib (EKB-569), Pelitinib]: the ΔTm at 10 µM in experiment [1] (setting [6]) was 3.2 °C. `CC(C)CC(=O)Nc1[nH]nc2c1CN(C(=O)C1CCN(C)CC1)C2(C)C` [PHA-793887]: the ΔTm at 10 µM in experiment [1] (setting [6]) was 3 °C.

On to `C=CC(=O)Nc1cccc(Sc2nc(Nc3ccc(N4CCN(C)CC4)cc3)ncc2Cl)c1` [WZ8040], for which the “Mean ΔTm (°C)” value in experiment [1] (setting [7]) worked out at 4.1 °C.

Regarding `CN(c1ncccc1CNc1nc(Nc2ccc3c(c2)CC(=O)N3)ncc1C(F)(F)F)S(C)(=O)=O` [PF-00562271], in experiment [1] (setting [7]), the “Mean ΔTm (°C)” value was determined as 5.2 °C. For the compound `Nc1nc(Nc2ccc(S(N)(=O)=O)cc2)nn1C(=O)c1c(F)cccc1F` [JNJ-7706621], the ΔTm at 10 µM in experiment [1] (setting [6]) was found to be 3.6 °C. Regarding `C=CC(=O)Nc1cccc(Oc2nc(Nc3ccc(N4CCN(C)CC4)cc3)ncc2Cl)c1` [WZ3146], the “Mean ΔTm (°C)” value in experiment [1] (setting [7]) was determined as 3.1 °C.

For `CCN(CC)CCNC(=O)c1c(C)[nH]c(/C=C2\C(=O)Nc3ccc(F)cc32)c1C` [Sunitinib Malate], the “Remaining activity (%) … (2011) CAMKK1” value in the experiment with CAMKK1 was 52%. Besides, the “Remaining activity (%) … (2011) CAMKK2” value with CAMKK2 is listed as 65%. For the compound `CNC(=O)c1cc(Oc2ccc(NC(=O)Nc3ccc(Cl)c(C(F)(F)F)c3)cc2)ccn1` [Sorafenib], the ΔTm at 10 µM in experiment [1] (read-out: Mean ΔTm (°C)) worked out at 2.5 °C. Moreover, the “Remaining activity (%) … (2011) CAMKK1” value in the experiment with CAMKK1 is recorded as 103%. In addition, in the experiment with CAMKK2, the “Remaining activity (%) … (2011) CAMKK2” value is listed as 103%. On to `C=CC(=O)Nc1cc(Nc2nccc(-c3cn(C)c4ccccc34)n2)c(OC)cc1N(C)CCN(C)C` [AZD9291], for which, in experiment [1] (setting [6]), the ΔTm at 10 µM came to 2.6 °C. As to `Cc1cc(Nc2nc(N[C@@H](C)c3ccc(F)cc3)c(C#N)cc2F)[nH]n1` [AZ 960], in experiment [1] (setting [6]), the ΔTm at 10 µM was determined as 4.4 °C.

With `O=C(Nc1cccc(Nc2ncc(Br)c(NCCc3cnc[nH]3)n2)c1)N1CCCC1` [BX-912], the “Mean ΔTm (°C)” value in experiment [1] (setting [7]) is 4.3 °C. In the case of `O=C(c1cccc(Cl)c1F)N1CCN(Cc2cccc(Nc3nccs3)n2)CC1` [MK-8745], the “Mean ΔTm (°C)” value in experiment [1] (setting [7]) came out at 2.0 °C. Same read-out and setting: for `NC(=O)c1cnc(N[C@@H]2CCCC[C@@H]2N)nc1Nc1cccc(-n2nccn2)c1` [PRT062607 (P505-15)] the value was 4.1 °C. As to `CN1CCN(c2ccc3nc(-c4c(N)c5c(F)cccc5[nH]c4=O)[nH]c3c2)CC1` [Dovitinib (TKI-258) Dilactic Acid, Dovitinib], the ΔTm at 10 µM in experiment [1] (setting [6]) is 5.7 °C. Besides, in the experiment on CAMKK1, the “Remaining activity (%) … (2011) CAMKK1” value is 49%. Moreover, the “Remaining activity (%) … (2011) CAMKK2” value with CAMKK2 is given as 86%. With `COc1cc2nccc(Oc3ccc(NC(=O)Nc4cc(C)on4)c(Cl)c3)c2cc1OC` [Tivozanib (AV-951), Tivozanib], in experiment [1] (setting [4]), the ΔTm at 10 µM worked out at 2.6 ± 3.1 °C. `Cc1cc(Nc2ncc(Cl)c(Nc3ccccc3S(=O)(=O)C(C)C)n2)c(OC(C)C)cc1C1CCNCC1` [LDK378]: in experiment [1] (setting [6]), the ΔTm at 10 µM was 3.9 °C.

For AZD4547, the “Mean ΔTm (°C)” value in experiment [1] (setting [7]) is 5.9 °C. In the case of `Cc1cc(Nc2nc(N[C@@H](C)c3ncc(F)cn3)ncc2Cl)n[nH]1` [AZD1480], the ΔTm at 10 µM in experiment [1] (setting [6]) is 3.8 °C.
